Experimental data from patent publication US20100137344A1, “INDUCTION OF ANALGESIA IN NEUROPATHIC PAIN” (University Court of the University of Edinburgh, priority 2006, published 2010).
Like-named read-outs stand apart in the source and are kept apart here.

Test system: rats with chronic constriction injury (CCI) to sciatic nerve
Experiment: Intrathecal application in CCI rats, behavioural reflex testing (PWL, PWT)
Format: in vivo, rat
Conditions: for EC50: Rattus norvegicus, central; for duration of significant reversal of sensitised responses: (−)-menthol 200 nmol
Procedure: Pain models were generated under halothane anaesthesia (Zeneca, Cheshire, UK). For the chronic constriction injury (CCI) model of neuropathic pain, four ligatures were tied loosely to constrict the sciatic nerve at mid-thigh level (as described previously^[39]). An inflammatory pain model was generated by injecting 100 μl of Complete Freund's Adjuvant (CFA, Sigma-Aldrich Ltd) into the ventral surface of the right hindpaw^[39]. A model of peripheral demyelination-induced pain was produced by focal application of lysolecithin to the sciatic nerve^[40]. Peak behavioural sensitisation was observed post-surgically between days 10-16 for CCI, 1-3 for CFA, and 7-14 for lysolecithin, when pharmacological and electrophysiological experiments and tissue removal were conducted.
Thermal sensitivity was assessed by measuring paw withdrawal latency (PWL, s) in response to a noxious thermal stimulus (Hargreaves' thermal stimulator, Linton Instrumentation, Diss, UK) directed to the hindpaw mid-plantar glabrous surface. Mechanical sensitivity was recorded as the paw withdrawal threshold (PWT, mN/mm^2) to calibrated von Frey filaments (Stoelting, Ill., US), as previously described^[39]. Sensitivity to noxious cold was assessed by placing animals in a waterbath with an aluminium floor containing 1 cm deep 4° C. water and counting the time the paw was held suspended over a 20 s period.
The following drugs were applied intrathecally in a 50 μl volume of saline-based vehicle at 37° C.: icilin (2.5-200 μM in saline with 0.2% dimethylformamide, DMF), LY 341495 (100 μM in saline), UBP 1112 (200 μM in saline), 2R,4R-APDC ((2R, 4R)-4-aminopyrrolidine-2,4-dicarboxylate), 300 μM in saline), ACPT-III ((1R,3R,4S)-1-aminocyclopentane-1,3,4-tricarboxylic acid), 3 mM in saline), AP-4, ((L-(1)-2-amino-4-phosphonobutyric acid), 3 mM in saline), naloxone (0.5 mM in saline), NMDA (75 μM in saline) and ACPC (1-aminocyclopropanecarboxylic acid, 15 μM in saline) (Tocris Cookson, Bristol, UK), (−)-menthol (1R,2S,5R-(−)-menthol, 4 mM in saline), cinnamaldehyde (1.5 mM in saline) and Ruthenium Red (5 μM in saline) (Sigma-Aldrich Co. Ltd, UK) and allicin (0.5 mM in saline with 0.5% DMF) and diallyl disulphide (DADS, 1 mM in saline with 0.5% DMF) (LKT Laboratories Inc., St Paul, Minn., USA). Drugs were injected into the L5/6 intrathecal space under brief halothane anaesthesia, using a 25-gauge needle microsyringe (BD Biosciences, Oxford, UK), as described previously^[39] in animals that were at peak levels of behavioural sensitisation. Behavioural reflex testing commenced 15 min following injection to allow recovery from anaesthesia^[40,41,42] and continued every 5 min thereafter until readings returned to baseline levels (n=6 in each case). We, and others^[40,41,42] find complete recovery from anaesthetic by 15 minutes. All appropriate controls were carried out to eliminate the possibility of effects due to vehicle or to injection procedure.
The TRPM8 channel activators, icilin and (−)-menthol were tested in CCI and naïve animals. The effects of icilin were additionally assessed in animals with CFA-induced inflammation or with lysolecithin-induced demyelination. Icilin was also co-administered with the μ-opioid receptor antagonist naloxone, the Group II metabotropic glutamate receptor (mGluR) antagonist, LY 341495, or the Group III mGluR antagonist, UBP 1112. The effects of these antagonists alone as well as effects of the Group II mGluR agonist, 2R,4R-APDC and the Group III mGluR agonists, ACPT-III and AP-4, were assessed in CCI animals. The TRPA1 channel activator, cinnamaldehyde, alone and with icilin, was tested in CCI animals and in naïve animals. Further TRPA1 channel activators, allicin and diallyl disulphide were assessed in naïve animals. Both icilin and cinnamaldehyde effects in CCI animals were also investigated in the additional presence of Ruthenium Red.

[1] = intrathecal, non-linear curve-fitting
[2] = (−)-menthol 200 nmol intrathecal alone, 20-30 minutes post-injection

| Structure (SMILES) | Ipsilateral PWL (CCI, NMDA/ACPC in the additional presence of icilin 10 nmol) [s] | Ipsilateral PWT (CCI, NMDA/ACPC with co-injection of icilin 10 nmol) [mN/mm^2] | Mean % reversal of mechanical sensitisation (after 15-30 mins) (CCI, icilin 10 nmol, i.t.) [%] | Mean % reversal of thermal sensitisation (after 15-30 mins) (CCI, icilin 10 nmol, i.t.) [%] | PWL (s) difference from control (+ icilin) (CCI, icilin 10 nmol, i.t.) [s] | PWT (mN/mm^2) difference from control (+ icilin) (CCI, icilin 10 nmol, i.t.) [mN/mm^2] | EC50 (intrathecal, non-linear curve-fitting, read-out: EC50 (dose for 50% of maximal effect), PWL) [nM] | EC50 (intrathecal, non-linear curve-fitting, read-out: EC50 (dose for 50% of maximal effect), PWT) [nM] | duration of significant reversal of sensitised responses (intrathecal, icilin 10 nmol) | maximal effect, reversal of sensitisation, PWL [1] [%] | maximal effect, reversal of sensitisation, PWT [1] [%] | dose by which analgesic effects were statistically significant (intrathecal, thermal and mechanical tests, nerve injury side) [nmol] | mean percentage reversal of sensitisation, PWL [2] [%] | mean percentage reversal of sensitisation, PWT [2] [%] |
| --- | --- | --- | --- | --- | --- | --- | --- | --- | --- | --- | --- | --- | --- | --- |
| O=C1NC(c2cccc([N+](=O)[O-])c2)=CCN1c1ccccc1O [icilin, 1-(2′-hydroxyphenyl)-4-(3″-nitrophenyl)-1,2,3,6-tetrahydropyrimidin-2-one] | 14.9 ± 0.6 | 3482.7±174.3 | 76.8 ± 5.3 | 84.7 ± 6.0 | 0.9 ± 1.2 | 775.4 ± 467.7 | 0.17 ± 0.02 | 0.31 ± 0.02 | up to 55 min | 91.6±9.9 | 82.6±6.8 | 0.125 | – | – |
| CC(C)[C@@H]1CC[C@@H](C)C[C@H]1O [(−)-menthol, 1R,2S,5R-(−)-menthol] | – | – | – | – | – | – | – | – | 35 to 40 min | – | – | – | 86.1±8.1 | 80.6±4.2 |
